Reference: ChEMBL document CHEMBL1145850, “Pharmacophoric requirements for the cannabinoid side chain. Probing the cannabinoid receptor subsite at C1'” (J Med Chem, 2003)

Each compound was assayed against Cannabinoid receptor 2 (Mus musculus, UniProt P47936) (assay: Compound was tested for its binding affinity against mouse spleen Cannabinoid receptor 2 using [3H]CP-55940 as radioligand).
Cannabinoid receptor 2, sequence (P47936 whole entry): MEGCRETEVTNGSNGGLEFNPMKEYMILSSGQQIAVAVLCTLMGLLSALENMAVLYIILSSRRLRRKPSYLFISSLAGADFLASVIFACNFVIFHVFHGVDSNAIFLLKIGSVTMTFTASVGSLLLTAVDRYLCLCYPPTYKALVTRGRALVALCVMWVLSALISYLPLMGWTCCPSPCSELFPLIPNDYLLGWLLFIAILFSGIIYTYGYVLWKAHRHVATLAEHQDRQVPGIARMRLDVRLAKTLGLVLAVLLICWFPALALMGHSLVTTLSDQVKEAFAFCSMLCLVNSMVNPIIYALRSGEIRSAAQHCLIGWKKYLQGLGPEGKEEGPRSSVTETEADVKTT
Type: tissue-based
Work on `CCCCCCC1(c2cc(O)c3c(c2)OC(C)(C)[C@@H]2CC=C(C)C[C@@H]32)SCCCS1` yielded a Ki of 3.6 nM.
Compound `CC1=CC[C@@H]2[C@@H](C1)c1c(O)cc(C3SCCS3)cc1OC2(C)C` has a Ki of 103 nM.
`CCCCCCC1(c2cc(O)c3c(c2)OC(C)(C)[C@@H]2CC=C(C)C[C@@H]32)CCCC1` showed a Ki of 1.92 nM.
In the case of `CCCCCCC1(c2cc(O)c3c(c2)OC(C)(C)[C@@H]2CC=C(C)C[C@@H]32)Sc2ccccc2S1`, the Ki is reported as 257 nM.
For `CCCCCCC1(c2cc(O)c3c(c2)OC(C)(C)[C@@H]2CC=C(C)C[C@@H]32)SC(C)C(C)S1` (stereo partly drawn), the Ki was 19.7 nM.
For `CCCCCCC1(c2cc(O)c3c(c2)OC(C)(C)[C@@H]2CC=C(C)C[C@@H]32)OCCO1`, the Ki was 0.22 nM.

The compounds below were run against Cannabinoid receptor 1 (Rattus norvegicus, UniProt P20272) (assay: Binding affinity against rat brain Cannabinoid receptor 1 using [3H]CP-55940).
Cannabinoid receptor 1, sequence (P20272 whole entry): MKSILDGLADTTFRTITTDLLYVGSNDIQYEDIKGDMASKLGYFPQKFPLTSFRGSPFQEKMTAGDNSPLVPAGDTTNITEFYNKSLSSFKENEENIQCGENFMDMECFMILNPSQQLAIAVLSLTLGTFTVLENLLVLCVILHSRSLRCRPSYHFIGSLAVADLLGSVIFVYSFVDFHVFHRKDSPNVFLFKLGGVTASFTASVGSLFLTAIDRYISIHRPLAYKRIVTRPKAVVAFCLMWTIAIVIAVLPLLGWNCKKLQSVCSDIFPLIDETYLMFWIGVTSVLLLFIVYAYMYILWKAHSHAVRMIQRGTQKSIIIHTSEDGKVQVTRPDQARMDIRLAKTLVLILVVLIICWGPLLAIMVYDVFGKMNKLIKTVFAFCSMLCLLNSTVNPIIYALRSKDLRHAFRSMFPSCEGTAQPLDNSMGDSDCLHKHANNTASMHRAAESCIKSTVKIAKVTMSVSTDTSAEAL
For `CCCCCCC1(c2cc(O)c3c(c2)OC(C)(C)[C@@H]2CC=C(C)C[C@@H]32)SCCCS1`, the Ki was 1.8 nM.
Compound `CC1=CC[C@@H]2[C@@H](C1)c1c(O)cc(C3SCCS3)cc1OC2(C)C` has a Ki of 168 nM.
Compound `CCCCCCCc1cc(O)c2c(c1)OC(C)(C)[C@@H]1CC=C(C)C[C@@H]21` has a Ki of 22 nM.
Compound `CCCCCCC1(c2cc(O)c3c(c2)OC(C)(C)[C@@H]2CC=C(C)C[C@@H]32)CCCC1` has a Ki of 0.45 nM.
Work on `CCCCCCC1(c2cc(O)c3c(c2)OC(C)(C)[C@@H]2CC=C(C)C[C@@H]32)Sc2ccccc2S1` yielded a Ki of 56.9 nM.
Compound `CCCCCCC1(c2cc(O)c3c(c2)OC(C)(C)[C@@H]2CC=C(C)C[C@@H]32)SC(C)C(C)S1` (stereo partly drawn) has a Ki of 32.3 nM.
`CCCCCCC1(c2cc(O)c3c(c2)OC(C)(C)[C@@H]2CC=C(C)C[C@@H]32)OCCO1` showed a Ki of 0.52 nM.
